Results taken from the supplement of paper PMC10307832.

Columns and labels:
Assay in all cases: relative viability (nuclei count vs DMSO), 5 days (fraction); higher = more cells survive
Sunitinib + Luminespib = compound: CCN(CC)CCNC(=O)c1c(C)[nH]c(/C=C2\C(=O)Nc3ccc(F)cc32)c1C [Sunitinib] + CCNC(=O)c1noc(-c2cc(C(C)C)c(O)cc2O)c1-c1ccc(CN2CCOCC2)cc1 [Luminespib] (partner 0.01 µM)
In short: (§1)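 Dosing by pin tool came one day after lung cancer cell lines were seeded in 1536-well plates, using either one drug or a fixed anchor-drug dose plus five library-drug doses (not always all listed) in √10 steps. After 5 days, nuclei were counted on 4× images. Relative viability is treated-well nuclei count divided by vehicle-well nuclei count, and values are medians of duplicate plates.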

Sunitinib + Tozasertib = compound: CCN(CC)CCNC(=O)c1c(C)[nH]c(/C=C2\C(=O)Nc3ccc(F)cc32)c1C [Sunitinib] + Cc1cc(Nc2cc(N3CCN(C)CC3)nc(Sc3ccc(NC(=O)C4CC4)cc3)n2)n[nH]1 [Tozasertib] (partner 0.1 µM)
In short: as §1

Sunitinib + Alpelisib = compound: CCN(CC)CCNC(=O)c1c(C)[nH]c(/C=C2\C(=O)Nc3ccc(F)cc32)c1C [Sunitinib] + Cc1nc(NC(=O)N2CCC[C@H]2C(N)=O)sc1-c1ccnc(C(C)(C)C(F)(F)F)c1 [Alpelisib] (partner 2 µM)
In short: as §1

Sunitinib + Dasatinib = compound: CCN(CC)CCNC(=O)c1c(C)[nH]c(/C=C2\C(=O)Nc3ccc(F)cc32)c1C [Sunitinib] + Cc1nc(Nc2ncc(C(=O)Nc3c(C)cccc3Cl)s2)cc(N2CCN(CCO)CC2)n1 [Dasatinib] (partner 0.075 µM)
In short: as §1

Row | Cell Line | relative viability (Sunitinib + Luminespib; first compound 0.02 µM) | relative viability (Sunitinib + Luminespib; first compound 0.06325 µM) | relative viability (Sunitinib + Luminespib; first compound 0.2 µM) | relative viability (Sunitinib + Luminespib; first compound 0.6325 µM) | relative viability (Sunitinib + Luminespib; first compound 2 µM) | relative viability (Sunitinib + Tozasertib; first compound 0.02 µM) | relative viability (Sunitinib + Tozasertib; first compound 0.06325 µM) | relative viability (Sunitinib + Tozasertib; first compound 0.2 µM) | relative viability (Sunitinib + Tozasertib; first compound 0.6325 µM) | relative viability (Sunitinib + Tozasertib; first compound 2 µM) | relative viability (Sunitinib + Alpelisib; first compound 0.02 µM) | relative viability (Sunitinib + Alpelisib; first compound 0.06325 µM) | relative viability (Sunitinib + Alpelisib; first compound 0.2 µM) | relative viability (Sunitinib + Alpelisib; first compound 0.6325 µM) | relative viability (Sunitinib + Alpelisib; first compound 2 µM) | relative viability (Sunitinib + Dasatinib; first compound 0.02 µM) | relative viability (Sunitinib + Dasatinib; first compound 0.06325 µM) | relative viability (Sunitinib + Dasatinib; first compound 0.2 µM) | relative viability (Sunitinib + Dasatinib; first compound 0.6325 µM) | relative viability (Sunitinib + Dasatinib; first compound 2 µM)
1 | PC-3 [JPC-3] | 0.681 | 0.672 | 0.755 | 0.762 | 0.692 | 0.912 | 0.909 | 0.954 | 0.936 | 0.867 | 1.1 | 1.07 | 1.03 | 1.07 | 0.99 | 1.04 | 0.903 | 1.19 | 1.05 | 0.967
2 | PC-14 | 0.18 | 0.121 | 0.201 | 0.144 | 0.216 | 0.53 | 0.589 | 0.583 | 0.578 | 0.523 | 0.95 | 0.874 | 1.05 | 1.08 | 0.908 | 0.291 | 0.232 | 0.269 | 0.385 | 0.261
3 | RERF-LC-KJ | 1.02 | 1.25 | 1.35 | 1.4 | 1.14 | 0.508 | 0.487 | 0.547 | 0.47 | 0.541 | 0.775 | 0.826 | 0.932 |  | 0.789 | 0.768 | 0.897 | 0.832 | 0.821 | 0.847
4 | SK-LU-1 | 0.21 | 0.187 | 0.21 | 0.216 | 0.2 | 0.377 | 0.424 | 0.433 | 0.379 | 0.332 | 0.863 | 1.25 | 1.12 | 1.09 | 0.669 | 0.179 | 0.185 | 0.176 | 0.171 | 0.161
5 | SK-MES-1 | 0.729 | 0.708 | 0.795 |  | 0.7 | 0.892 |  | 0.979 | 1 |  | 0.885 | 1.02 | 0.86 | 1.02 | 0.927 | 0.354 | 0.457 | 0.341 | 0.319 | 0.308
6 | SW 1573 | 0.156 | 0.248 | 0.247 | 0.189 | 0.186 | 0.153 | 0.22 | 0.205 | 0.155 | 0.195 | 0.715 | 0.827 | 0.932 | 0.84 | 0.784 | 0.464 | 0.55 | 0.64 | 0.526 | 0.391
7 | UMC-11 | 1.01 | 1.02 | 1.14 | 1.1 | 0.943 | 0.206 | 0.207 | 0.198 | 0.199 | 0.197 | 0.945 | 1.03 | 0.892 | 0.929 | 0.912 | 0.454 | 0.525 | 0.584 | 0.525 | 0.424
